This assay deals with Fusobacterium (Fusobacterium nucleatum subsp. nucleatum ATCC23726 and ATCC25586). The experiment in a line: Study of sterilization effect of quaternary ammonium salt sterilizer liquids (in water) on Fusobacterium, viable count after 30 seconds. It counts as cell-based. Conditions: for sterilization effect on Fusobacterium (number of viable bacteria): component used singly as sterilizer liquid in water, 0.01-0.10%, 30 seconds contact. The protocol: The alkylpyridinium chlorides and benzyl alkyl dimethyl ammonium chlorides shown below were dissolved in water such that each component had each concentration (0.01%, 0.02%, 0.03%, 0.04%, 0.05%, 0.07%, or 0.10%), and the resulting products were used as sterilizer liquids. In the sterilizer liquids, the components were used singly or in combination. The concentration (%) of an alkylpyridinium chloride in the sterilizer liquids is expressed as w/v %; however, since the solvent is water, and the concentrations are relatively low, the value is almost the same as the value expressed as mass % (w/w %) and can be approximated. • Octylpyridinium chloride (OPC): R=(CH2)7CH3 in the following formula • Dodecylpyridnium chloride (DPC): R=(CH2)11CH3 in the following formula • Cetylpyridinium chloride (CPC): R=(CH2)15CH3 in the following formula
For test bacteria, the following two subspecies of Fusobacterium were used. • Bacteria 1: Fusobacterium nucleatum subsp. nucleatum ATCC23726 • Bacteria 2: Fusobacterium nucleatum subsp. nucleatum ATCC25586
The test bacteria were individually inoculated into 10 ml of GAM bouillon medium (Nissui Pharmaceutical Co., Ltd.) and incubated anaerobically at 37° C. for 2 days. The resulting culture media were used as test bacteria liquids.
The sterilizer liquids (200 μl) at different concentrations were each mixed with the test bacteria liquids (200 μl). Thirty seconds after the mixing, 100 μl of the mixture was collected, and 900 μl of drug inactivation PBS in which soy lecithin and Tween 80 were added to a final concentration of 0.07% and 0.5%, respectively, to phosphate-buffered saline (PBS) was added (the mixture was diluted 10-fold) to inactivate the sterilization properties of the sterilizers. Each mixture was serially diluted 10^1- to 10^7-fold with the drug inactivation PBS (serially diluted mixers).
100 μl each of the prepared serially diluted mixers was smeared on sheep blood agar media for CDC anaerobes (Becton, Dickinson and Company), cultured anaerobically at 37° C. for 3 days, and the number of viable bacteria was counted.
FIGS. 1, 2, and 3 show the results. In the graphs of these figures, the vertical axis represents log (the number of viable bacteria) CFU/ml, with the detection limit of this value being 2.
The concentrations of CPC, DPC, OPC, BKC12, BKC14, and BKC16 in these figures and the following figures represent the concentrations of these components prepared as sterilizer liquids.

SMILES strings stand for the structures.

For the compound `CCCCCCCCCCCC[N+](C)(C)Cc1ccccc1.[Cl-]` [BKC12, Benzyl dodecyl dimethyl ammonium chloride], the “sterilization effect on Fusobacterium (number of viable bacteria)” value (from here on “sterilization effect on Fusobacterium”) is reported as “showed a sterilization effect on Fusobacterium even at a relatively low concentration”.

For `CCCCCCCCCCCCCC[N+](C)(C)Cc1ccccc1.[Cl-]` [BKC14, Benzyl tetradecyl dimethyl ammonium chloride], the “sterilization effect on Fusobacterium” value is listed as “showed a sterilization effect on Fusobacterium even at a relatively low concentration”.

Consider `CCCCCCCCCCCCCCCC[N+](C)(C)Cc1ccccc1.[Cl-]` [BKC16, Benzyl hexadecyl dimethyl ammonium chloride], for which the “sterilization effect on Fusobacterium” value was “did not show a sterilization effect on Fusobacterium”.

Turning to `CCCCCCCCCCCCCCCC[n+]1ccccc1.[Cl-]` [CPC, Cetylpyridinium chloride], the “sterilization effect on Fusobacterium” value is “did not show a sterilization effect on Fusobacterium”. Moreover, the “enhancement of the sterilization effect of BKC12 on Fusobacterium” value (CPC combined with BKC12 in the sterilizer liquid) was “enhanced the sterilization effect of BKC14 or BKC12 on Fusobacterium”. The “enhancement of the sterilization effect of BKC14 on Fusobacterium” value (CPC combined with BKC14 in the sterilizer liquid) is given as “enhanced the sterilization effect of BKC14 or BKC12 on Fusobacterium”. The “enhancement of the sterilization effect of DPC on Fusobacterium” value (CPC combined with DPC in the sterilizer liquid) is “enhanced the sterilization effect of DPC on Fusobacterium”. In addition, the “enhancement of the sterilization effect of a quaternary ammonium salt having a C10 to C14 alkyl group on Fusobacterium” value (cetylpyridinium chloride combined with the quaternary ammonium salt) is listed as “exhibits an effect of enhancing the sterilization effect of a quaternary ammonium salt having a C10 to C14 alkyl group on Fusobacterium”. For the same compound, the “sterilization effect on Fusobacterium” value (listed as Cetylpyridinium chloride) is on record as “an efficient sterilization effect on Fusobacterium was not observed”. Besides, where the note is “listed as cetylpyridinium chloride”, the “sterilization effect on Fusobacterium” value is listed as “does not produce an efficient sterilization effect on Fusobacterium”.

Take `CCCCCCCCCCCC[n+]1ccccc1.[Cl-]` [DPC, Dodecylpyridnium chloride]: the “sterilization effect on Fusobacterium” value is “showed a sterilization effect on Fusobacterium even at a relatively low concentration”.

As to `CCCCCCCC[n+]1ccccc1.[Cl-]` [OPC, Octylpyridinium chloride], the “sterilization effect on Fusobacterium” value is given as “did not show a sterilization effect on Fusobacterium”.

Values taken from patent US12458578B2, “Composition for inhibiting plaque formation” (SUNSTAR SUISSE SA, priority 2020, dated 2025).
